From US6291678A, “Process for the preparation of chiral keto-heterocycles of basic amino acids” (Warner-Lambert Company, priority 1998, dated 2001)

Legend:
thrombin = thrombin (Homo sapiens, UniProt P00734); assay: Inhibition of thrombin catalytic activity (cleavage of chromogenic substrate S-2238); assay type: biochemical; conditions: S-2238 substrate; 60 minutes incubation at room temperature; absorbance at 405 nm over 5 minutes
Description: Typically thrombin in 10 mM HEPES, 100 mM NaCl, 0.05% BSA, and 0.1% PEG-8000 and the test substance in DMSO are incubated for 60 minutes at room temperature.

trypsin = target: T1, trypsin (Bos taurus, UniProt P00760); assay: Trypsin inhibitory activity (chromogenic substrate S2222); assay type: biochemical; conditions: protocol similar to thrombin
T1 sequence (P00760 24-246): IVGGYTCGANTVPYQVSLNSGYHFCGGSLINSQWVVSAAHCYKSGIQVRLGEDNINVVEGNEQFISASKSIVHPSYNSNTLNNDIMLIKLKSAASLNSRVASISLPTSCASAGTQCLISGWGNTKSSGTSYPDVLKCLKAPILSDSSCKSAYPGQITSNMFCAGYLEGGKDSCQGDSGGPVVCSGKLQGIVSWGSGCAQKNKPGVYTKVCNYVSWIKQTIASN
Description: The ability of compounds to act as inhibitors of thrombin catalytic activity is assessed by determination of that concentration of test substance that inhibits by 50% (IC50) the ability of thrombin to cleave the chromogenic substrate S-2238 (H-D-Phe-L-Pip-L-Arg-p-nitroanilide.2 HCl). Typically thrombin in 10 mM HEPES, 100 mM NaCl, 0.05% BSA, and 0.1% PEG-8000 and the test substance in DMSO are incubated for 60 minutes at room temperature. To this mixture is added S-2238 and the velocity of S-2238 hydrolysis measured by observing the intensity of absorbance at 405 nm over 5 minutes.
A similar protocol is followed to access the trypsin inhibitory activity of the test substances, except thrombin is replaced by trypsin and the chromogenic substrate is S2222 (N-Bz-L-Ile-L-Glu-L-Gly-L-Arg-p-nitroanilide.HCl).

rat carotid artery = assay: Rat arterial model of thrombosis (FeCl3 injury of the carotid artery), markers of anticoagulant activity in vivo; conditions: for Fold Shift in aPTT: activated partial thromboplastin time at 30 minute time point, control aPTT 15 s; for Fold Shift in aPTT / Fold Shift in TT: loading dose 0.75 mg/kg plus infusion of 50 μg/kg/min; for Fold Shift in MOT: mean occlusion time, loading dose 0.75 mg/kg plus continual infusion of 50 μg/kg/min, control MOT 20 minutes; for Fold Shift in TT: thrombin time at 30 minute time point, control TT 30 s
Description: The ability of compounds to affect markers of anticoagulant activity in vivo were assessed in a rat arterial model of thrombosis. This model requires injury of the rat carotid artery by the application of a FeCl3 solution. Typically test substances are administered by applying a loading dose of 0.75 mg/kg plus continual infusion of 50 μg/kg/min.
The fold shift in aPTT and TT are measured at a 30 minute time point.

Row | IC50 (thrombin) | IC50 (trypsin) | SMILES | Fold Shift in aPTT (rat carotid artery) | Fold Shift in MOT (rat carotid artery) | Fold Shift in TT (rat carotid artery)
1 | 5 nM | 1 nM | N=C(N)NCCC[C@H](NC(=O)[C@@H]1CC[C@H]2CN(C(=O)CCc3ccccc3)CC(=O)N21)C(=O)c1nccs1 [A] | 3.2 | 2.4 | 13
2 | 30 nM | 4350 nM | N=C(N)N1CCC[C@@H](C[C@H](NC(=O)[C@@H]2CC[C@H]3CN(C(=O)CCc4ccccc4)CC(=O)N32)C(=O)c2nccs2)C1 [B] | 3.1 | > 3 | 15
